Measurements taken from patent US20060025484A1 (priority 2003, published 2006).
Where “and” joins values, the source holds several entries; their conditions need not be identical. Equal entries are not always repeated.

Key:
[1] = Gastrointestinal toxicity in patients; assay type: in vivo, human; conditions: nausea and vomiting in patients
Carcinogenicity = assay type: in vivo; conditions: in comparison with BCNU
Text: (§1) It is assumed that this is attributable to the fact that when HECNU is used, there cannot be any carbamoyl reactions in the body because no carbamoylating metabolite is formed in its degradation in the body.

colorectal carcinoma = conditions: phase II; cited from earlier work
Water solubility = assay type: physicochemical
Text: (§2) It is known that bis-(2-chloroethyl)-1-nitrosourea (hereinafter also referred to as BCNU) can be used in the treatment of various types of cancer. BCNU is lipophilic but it has a low solubility in water, so that additional solvents such as ethanol must be used in application. […] There has therefore been a search for alternatives to BCNU.

malignant brain tumors = conditions: phase II; cited from earlier work
pancreatic carcinoma = assay: Clinical phase II study in patients with pancreatic cancer; assay type: in vivo, human; set-up: key to Effect: partial remission (PR); minor response (MR)
Text: • Pancreatic carcinoma • Clinical study: • Phase II: ¼ partial remission (PR) (44 weeks)
+1 minor response (MR) (23 weeks)
A minor response was obtained in another patient.

[2] = system: human tumor xenograft models; assay: Subcutaneously implanted human tumor xenograft models in the naked mouse; assay type: in vivo; conditions: s.c. human xenografts: soft tissue sarcomas, testicular tumors, thymomas, melanomas, mammary carcinomas, lung tumors, Wilms' tumors, renal carcinomas
Text: Furthermore, the activity of HECNU has also been investigated in a number of subcutaneously implanted human tumor xenograft models in the naked mouse. […] These included soft tissue sarcomas, testicular tumors, thymomas, melanomas, mammary carcinomas, tumors of the lung, Wilms' tumors and renal carcinomas.

[3] = Organ toxicity (bone marrow, lungs, kidney); assay type: in vivo; conditions: in comparison with BCNU
Text: as §2, §1

pancreas lines = assay: In-vitro experiments with various pancreas lines; assay type: cell-based
Procedure: Inhibiting effects in the low μg/mL range were also found in in-vitro experiments conducted with various pancreas lines, an inhibiting effect normally being achieved with an HECNU concentration of less than 10 μg/mL.

glutathione reductase = molecular target: T1, glutathione reductase (Homo sapiens, UniProt P00390); assay: Inhibition of glutathione reductase in the lungs; assay type: biochemical
T1 construct: from tissue; host or cells: lungs
T1 sequence (P00390 44-522): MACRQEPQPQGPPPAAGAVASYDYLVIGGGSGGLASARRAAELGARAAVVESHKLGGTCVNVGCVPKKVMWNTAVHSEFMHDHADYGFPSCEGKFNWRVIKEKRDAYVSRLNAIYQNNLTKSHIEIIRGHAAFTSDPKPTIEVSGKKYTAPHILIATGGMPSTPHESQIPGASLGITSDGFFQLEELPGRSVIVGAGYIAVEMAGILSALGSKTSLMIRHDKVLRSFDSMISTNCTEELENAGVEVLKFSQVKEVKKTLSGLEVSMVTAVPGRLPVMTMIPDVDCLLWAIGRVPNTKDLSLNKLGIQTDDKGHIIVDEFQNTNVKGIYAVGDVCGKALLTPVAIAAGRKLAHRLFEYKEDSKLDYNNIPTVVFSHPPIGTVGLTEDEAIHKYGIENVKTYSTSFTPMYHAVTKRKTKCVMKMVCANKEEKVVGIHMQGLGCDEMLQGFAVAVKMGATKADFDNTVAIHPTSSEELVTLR
Text: as §1

[4] = system: tumors of the head and neck; assay: In-vitro experiments on tumors of the head and neck; assay type: cell-based
[5] = system: malignant supratentorial gliomas; conditions: cited from earlier work
gastric carcinomas = conditions: phase II; cited from earlier work
[6] = single patient with pancreas tumor, dose 100 mg/m^2

## O=NN(CCCl)C(=O)NCCO [HECNU, 1-(2-chloroethyl)-1-nitroso-3-(2-hydroxyethyl)urea]
[1]
  Gastrointestinal toxicity: only a low gastrointestinal toxicity
Carcinogenicity
  Carcinogenicity: much weaker carcinogen than BCNU
Colorectal carcinoma
  Activity and response rate: only marginal activities and response rates
Water solubility
  Water solubility: good water solubility
Malignant brain tumors
  Antineoplastic activity: significant antineoplastic activity
Pancreatic carcinoma; four treated patients with pancreatic cancer
  Partial remission, share of treated patients: ¼
Pancreatic carcinoma; [6]
  Effect: PR and MR
  Time to P (weeks): 44 weeks and 23 weeks
[2]
  Inhibiting effect on tumor growth: good to very good inhibiting effects on tumor growth
[3]
  Bone marrow, pulmonary and renal toxicity: greatly reduced bone marrow toxicity, pulmonary toxicity and renal toxicity
Pancreas lines
  HECNU concentration achieving an inhibiting effect: less than 10 μg/mL
Glutathione reductase
  Inhibition of glutathione reductase: does not inhibit glutathione reductase
[4]
  Inhibiting effect in vitro: an inhibiting effect was also achieved
[5]; compared with other nitrosoureas
  Toxicity profile: more favorable toxicity profile in comparison with other nitrosoureas
[5]; phase II, malignant supratentorial gliomas
  Activity: demonstrated its activity
Gastric carcinomas
  Partial remission, patients treated: 31%
